Measurements published in ChEMBL document CHEMBL3507680, “University of Dundee, Gates Library screen for HepG2 cell viability”.

Test: Human HepG2 cell viability assay in 384 well format
Format: toxicity, cell-based
Parameters: dose 125 nL, time 70.5 hour; concentration not given beside the values
Conditions: HepG2 cells, read-out: Inhibition

| SMILES | cytotoxicity at 70.5 h [%] |
| --- | --- |
| COc1cc(C(=O)N(C)C)ccc1NC(=O)c1ccsc1 | 1.32 |
| CN(CC1CC1)C(=O)CN1CCCC1c1cnn(C)c1 (configuration not stated) | 1.65 |
| CC(=O)Nc1nc(C(=O)NCCOc2cccc(C)c2)cs1 | -8.98 |
| CC(=O)Nc1nc(C(=O)NCCOc2cccc(F)c2)cs1 | -17.7 |
| CC(C)N(C)Cc1ccccc1CNc1ccc2nncn2n1 | -12 |
| COc1ccccc1C(=O)Nc1c(C)cnn1CC1CC1 | -21.8 |
| CCOc1ncccc1C(=O)Nc1c(C)cnn1CC1CC1 | -9.45 |
| CN(C(=O)CN1CCCC1c1cnn(C)c1)C1(C#N)CCCCC1 (configuration not stated) | -4.65 |
| NC(=O)CCn1ccc(NC(=O)C2(c3ccc(F)cc3)CCC2)n1 | 1.99 |
| Cc1cnn(CCC(=O)Nc2ccc(F)cc2OCC2CC2)c1 | -12.1 |
| O=C(CCn1cncn1)Nc1ccc(F)cc1OCC1CC1 | -9.3 |
| O=C(Cn1cnnn1)Nc1ccc(F)cc1OCC1CC1 | -13.9 |
| CNC(=O)c1ccc(OC)c(NCc2noc(-c3cccs3)n2)c1 | -16.8 |
| O=C(c1cccnc1)N1CCN(c2ccnc3ccsc23)CC1 | -10.7 |
| Cc1cc(CNC(=O)NCc2cccs2)ccc1S(C)(=O)=O | -8.79 |
| CC(CNC(=O)c1c[nH]nn1)Oc1ccccc1Br (configuration not stated) | -10.7 |
| CC(C)S(=O)(=O)N(C)C(=O)CCc1ccsc1 | -12 |
| Cc1ccc(C(=O)N2CCN(c3ccnc4ccsc34)CC2)o1 | -12 |
| CCCS(=O)(=O)N(C)C(=O)CCc1ccsc1 | 0.207 |
| COCCOc1ccc(NCc2cccc3cn[nH]c23)cn1 | -7.69 |
| COCCOc1ncccc1C(=O)Nc1c(C)cnn1CC1CC1 | 8.78 |
| COCCOc1ccccc1C(=O)Nc1c(C)cnn1CC1CC1 | -6.01 |

| SMILES | cytotoxicity at 70.5 h [%] |
| --- | --- |
| Cc1cccc(OC2CCN(c3ncc(C#N)cc3Cl)CC2)n1 | -6.22 |
| CN(Cc1ccccc1)C(=O)CN1CCCC1c1cnn(C)c1 (configuration not stated) | -10.2 |
| Cc1ccc(-c2nnc(C(C)NCCn3cc(C)cn3)o2)cc1 (configuration not stated) | -14.8 |
| CCn1c(C)cc(C(=O)NCc2cccc(S(=O)(=O)NC)c2)c1C | -4.15 |
| Cc1cc(SC(C)(C)C)ccc1NC(C)C(=O)NC(N)=O (configuration not stated) | 9.69 |
| CCc1noc(CS(=O)(=O)C/C=C/c2ccccc2)n1 | -10.8 |
| CCn1c(C)cc(C(=O)NCc2ccc(CS(C)(=O)=O)cc2)c1C | -7.81 |
| Fc1cccc(NCc2ncc[nH]2)c1 | -8.15 |
| CNC(=O)c1cccc(CCNC(=O)N2CCc3ccccc3C2)c1 | -1.68 |
| CC(C)c1nc(S(=O)(=O)N(C)c2ccc(F)cc2)c[nH]1 | -7.45 |
| Cc1nccc(CNS(=O)(=O)N2CCCC2c2ccc(C)o2)n1 (configuration not stated) | -9.86 |
| Cc1noc(CCCNS(=O)(=O)N2CCCC2c2ccco2)n1 (configuration not stated) | -9.07 |
| Cc1noc(CCNS(=O)(=O)N2CCCC2c2ccc(C)o2)n1 (configuration not stated) | 9.73 |
| Cc1cc(SC(C)(C)C)ccc1NC(=O)CNC(N)=O | -9.26 |
| Cc1cccc(I)c1C(=O)NCc1ncc[nH]1 | -10.8 |
| COc1cc(C(=O)N(C)Cc2cc(C(=O)O)c(C)o2)cc(OC)c1OC | -7.77 |
| Cc1cccc(C(=O)N2CCCC2c2c(C)n[nH]c2C)c1 (configuration not stated) | -2.31 |
| Cc1cnn(CCNC(C)c2nnc(-c3cccc(Cl)c3)o2)c1 (configuration not stated) | -6.22 |
| Cc1cccc(C(=O)Nc2ccc(OC3CCOCC3)c(C)c2)n1 | 15.2 |
| CC(C)c1nc(S(=O)(=O)N(C)c2cc(F)ccc2F)c[nH]1 | -4.89 |
| CC(CC#N)N(C)Cc1ccccc1Cl (configuration not stated) | -7.77 |
| CC(CCNC(=O)NCCc1ccncc1)c1ccccc1 (configuration not stated) | -0.345 |

| SMILES | cytotoxicity at 70.5 h [%] |
| --- | --- |
| O=S(=O)(CCc1ccccc1)Cc1nc(C2CC2)no1 | -13 |
| C=C(C)CN(CC)Cc1nc(C2CC2)no1 | -5.54 |
| O=C(Cn1cncn1)NCC1(O)CCCc2ccccc21 (configuration not stated) | 23.9 |
| COc1ccc(NC(=O)C2CC2)cc1OCc1cccnc1 | 23 |
| Cc1noc(C)c1CC(=O)NCC(C(C)C)N1CCOCC1 (configuration not stated) | -10.6 |
| CN(Cc1ccco1)C(=O)c1ccc(=O)n(C)c1 | -6.1 |
| Cc1cccc(OCC(=O)N(Cc2ccncc2)C2CC2)c1 | -0.457 |
| COc1ccccc1C(C)N1CCN(S(=O)(=O)N(C)C)CC1 (configuration not stated) | 4.97 |
| COc1ccccc1C1(CNc2ncc(S(N)(=O)=O)s2)CC1 | -6.5 |
| NC(=O)C1CCN(Cc2ccc(S(=O)(=O)N3CCCC3)o2)CC1 | -3.5 |
| O=C(CCN1CCCCC1c1cc2ccccc2[nH]1)N1CCOCC1 (configuration not stated) | 8.08 |
| O=C(Nc1ccccc1Oc1cccc(F)c1)NC1CCS(=O)(=O)C1 (configuration not stated) | 2.26 |
| Cc1cc(CNC(=O)c2ccc(F)c(COCC3CC3)c2)no1 | -9.69 |
| Cc1cc(C(=O)Nc2ccc(N3CCCC3)cn2)ccc1-n1cncn1 | -1.17 |
| COCCC1(CNC(=O)NC2CCCN(C)C2)CC1 (configuration not stated) | 0.563 |
| CCc1nsc(N2CCc3sccc3C2)n1 | -2.5 |
| O=C(c1ccc(O)c(Cl)c1)N(Cc1ccncc1)C1CC1 | -2.89 |
| COC(C)(C)c1noc(C2(C#N)CCCCC2)n1 | -0.329 |
| Cn1cc(CCNC(=O)N2CCCc3c(F)cccc32)cn1 | 3.99 |
| CC(NCC(=O)Nc1ccc(N2CCCCCC2)cc1)c1cccs1 (configuration not stated) | -8.9 |
| CN(CC(=O)NCC(=O)Nc1ccc(F)cc1)Cc1cccs1 | -20.9 |
| COc1ccc(Oc2cc(CN)ccn2)cc1 | 2.32 |

| SMILES | cytotoxicity at 70.5 h [%] |
| --- | --- |
| CC(NCC(=O)NCC(=O)Nc1ccc(F)cc1)c1cccs1 (configuration not stated) | -17.8 |
| CN1CC(C(=O)NCCc2ccc3c(c2)OCCO3)CC1=O (configuration not stated) | -1.68 |
| Cc1nnc(NC(=O)NCCCN2CCC(C(N)=O)CC2)s1 | -8.8 |
| CCC(C)C(=O)Nc1ccc(CCN2CCOCC2)cc1 (configuration not stated) | -18.2 |
| NC(=O)C1CCN(CCCNC(=O)Nc2nccs2)CC1 | -25.9 |
| NC(=O)NC(CC(=O)N1CCc2sccc2C1)c1cccc(Br)c1 (configuration not stated) | -18.1 |
| CN1CC(C(=O)NCCc2ccc(F)c(Br)c2)CC1=O (configuration not stated) | -8.01 |
| Cn1ncc2c1CCCC2NCc1ccc(OCc2cccnc2)cc1 (configuration not stated) | -14.4 |
| O=C(CNc1ccc(OC2CCOC2)cc1)NCc1ccc(F)cc1 (configuration not stated) | -10.9 |
| COc1cc(F)c(NCc2nc3ccccc3n2C)cc1OC | -15.9 |
| COCCOc1ccc(F)cc1NCc1nc2ccccc2n1C | 11.4 |
| Cc1ccc(CCc2nc(C3CCOC3)no2)o1 (configuration not stated) | 6.82 |
| CC(=O)N1CCCC(C(=O)NCCc2ccc(F)c(Br)c2)C1 (configuration not stated) | -9.08 |
| CC(=O)N(C)C1CCCc2nc(C)sc21 (configuration not stated) | -11 |
| c1cnn(C2CN(Cc3noc(C4CC4)n3)C2)c1 | -7.11 |
| O=C(NCCn1ccnc1)c1csc2c1CCCC2 | -10.8 |
| Cc1cc(CNC(=O)CCc2ccc(S(N)(=O)=O)cc2)no1 | -11.1 |
| COCCCNC(=O)C1(NC(=O)c2ccc3[nH]ncc3c2)CCCC1 | -15.2 |
| CC(C)CNC(=O)CSc1nnc(OC(C)C)s1 | -10.7 |
| CC(C)c1nc(C2CCCNC2)no1 (configuration not stated) | 14.1 |
| COc1ccccc1CNC(C)c1ccc(-n2ccnc2)cc1 (configuration not stated) | 32.7 |
